From paper PMC12606464, “Investigating NFE2L1 activators for targeted protein aggregate clearance: a follow-up study” (RSC Medicinal Chemistry, 2025) come the findings set out here.

Peptide text beside a SMILES is read from it. * marks the point of attachment. Cbz = O=C(OCc1ccccc1)*

One experiment relates to IRE1/XBP1s. The experiment is described as follows: XBP1 endoplasmic reticulum stress reporter assay (CMV-XBP-GLuc). The class given is cell-based, human. The conditions noted are these: Figure S5; for Mean 2 (mean of log2-transformed values, treatment; DMSO = 0): N = 3; for Mean diff, DMSO vs. treatment (log2-transformed values): Dunnett's multiple comparisons test. An excerpt:
Next, we investigated whether the selected RUN compounds activate the NFE2L1 transcriptional program without triggering the unfolded protein response (UPR), a crucial cellular process induced by the accumulation of unfolded proteins in the endoplasmic reticulum (ER), potentially leading to ER stress. To monitor this, an alternative reporter was used to assess the activation of IRE1/XBP1s.[47] IRE1 is a bifunctional serine/threonine kinase and endoribonuclease embedded in the ER membrane, playing a central role in UPR signaling. Its RNase activity facilitates the splicing of X-box binding protein 1 (XBP1) mRNA. The spliced XBP1 acts as a transcription factor, promoting the re-establishment of ER homeostasis by upregulating genes involved in the ER-associated degradation (ERAD) pathway.[48–50] The reporter contains Gaussia luciferase positioned out of frame downstream of the XBP1 splice site, ensuring that active luciferase translation occurs only in the presence of ER stress.[51,52] Cells transfected with this reporter were treated with RUN compounds at 1, 5, and 10 μM, and luciferase activity was measured.
Figure S5: Impact of RUN compounds on ER stress-induced activation of the XBP1 reporter.
HEK293 cells were transfected with the CMV-XBP-GLuc reporter plasmid and allowed to stabilize overnight. Following stabilization, the cells were treated with MG132 or various concentrations of the test compounds (1, 2, 3, 5, 7.5, and 10 µM) for 16 hours. The Gaussia luciferase signal, which reflects XBP1 mRNA splicing, was adjusted based on cell viability as measured by the alamarBlue assay. Data are represented as Geomean ± GeoSD of three independent experiments ( n = 3. Statistical comparison of MG132 and RUN compounds vs DMSO and RUN compounds vs MG132 was performed on log2-transformed values using two-way repeated-measures ANOVA with Geisser –Greenhouse correction, followed by Dunnett’s multiple comparisons test with individual variances computed for each comparison. Results of the analysis are shown in Supplementary Table S15. […]
GraphPad Prism (v 10.6.1).
2.8 XBP1-endoplasmic reticulum (ER) stress reporter assay
HEK293 cells were seeded in 6-well plates and incubated for 24 hours before being transfected with a plasmid containing the CMV-XBP-Gluc reporter using Lipofectamine 2000.(4) After 6 hours, the transfected cells were subsequently transferred to 384-well plates, stabilized overnight, and treated with the proteasome inhibitor and ER stress inducer MG132 and/or various concentrations of RUN compounds (1, 5, and 10 µM) or vehicle (DMSO) for 16 hours. Luciferase activity was normalized to cell viability, which was assessed using the alamarBlue assay. The results are expressed as the fold change compared with the DMSO control, with the experiment conducted in biological triplicate. […]
For orientation: In a reporter assay the amount or activity of a reporter protein is the signal.

Experiment [1] relates to NFE2L1 pathway (DDI2-dependent) in HCT116 cells. The experiment is described as follows: 3×PSMA4-ARE-LUC reporter in HCT116 WT and DDI2 knockout cells. The class given is cell-based, human. As to the method: Fig. 1 (A) Targeted library screening of RUN compounds using the 3×PSMA4-ARE-LUC dual reporter assay in HEK293 cells. Cells were exposed to RUN compounds (5 μM) for 16 hours, and luciferase activity was measured. Data are presented as the mean ± SD from three independent experiments (n = 3). Results are shown as a fold change in luminescence relative to DMSO-treated cells. Selected hit compounds are highlighted in distinct colours. (B) RUN-89 specifically activates the NFE2L1 pathway. The DDI2 knockout (KO) and parental (WT) HCT116 cells were transfected with the 3×PSMA4-ARE-LUC reporter and treated with 0.5 μM bortezomib (BTZ) and 5 μM RUN-89 for 16 hours. Data are presented as the Geomean ± GeoSD of three independent experiments (n = 3). Statistical analysis was performed on log2-transformed values using two-way repeated-measures ANOVA followed by Šídak's multiple comparison test. (C) RUN-89 selectively triggers downstream signaling events associated with NFE2L1 gene expression. HEK293 cells were transfected with lipid nanoparticles (LNPs) carrying siRNAs targeting NFE2L1 or NFE2L2. LNPs formulated with non-targeting siRNA served as a negative control. Following 24 hours of incubation, cells were treated with 7.5 μM RUN-89 or DMSO (vehicle) for an additional 16 hours. Expression of the proteasomal subunit gene PSMC4 was then quantified by RT-qPCR. Data are shown as the Geomean ± GeoSD from three independent biological replicates (n = 3). Log2-transformed data were analyzed using two-way repeated-measures ANOVA with the Geisser–Greenhouse correction, followed by Tukey's multiple comparison test with individual variances computed for each comparison. Additional results for NFE2L1, NFE2L2, PSMB7, and PSMD12 are presented in SI Fig. S10.
To clarify whether the representative compound RUN-89 activates the NFE2L1-specific luciferase reporter independently of the KEAP1–NFE2L2 pathway, we used the 3×PSMA4-ARE-LUC dual reporter in previously published DDI2 knockout HCT116 cells (from ATCC CCL-247 (RRID:CVCL_0291)), in which the protease essential for NFE2L1 activation is disrupted. […] These findings indicate that RUN-89 activates the reporter construct through NFE2L1.
2 Biology Experimental Procedures […]
Cell lines were sourced from the ATCC (USA) and/or ECACC (UK), namely HCT116 (human colorectal carcinoma), ATCC CCL-247 (RRID:CVCL_0291), HEK-293 (human embryonic kidney), ATCC CRL-1573 (RRID:CVCL_0045), SH-SY5Y (human neuroblastoma), ATCC CRL-2266 (RRID:CVCL_0019). The characteristics of DDI2 knockout cells derived from HCT116 cells have been described previously (Sedlacek et al., 2025). All cell lines were tested for mycoplasma contamination. Most of the cell lines were cultured in Dulbecco's Modified Eagle Medium (DMEM) enriched with 10% fetal bovine serum (FBS) and 2 mM L-glutamine, under standard conditions of 37 °C with 5% CO₂. DNA transfection was performed with Lipofectamine 2000, following the manufacturer's instructions. […]
alamarBlue assay according to the standard protocol.(1)
2.3 Dual luciferase phenotypic assays
HEK293-derived cells stably expressing the 3×PSMA4-ARE-Luc reporter were maintained at low to mid passage numbers before use. For each experiment, cells were transiently transfected with the pRL-TK Renilla luciferase plasmid using Lipofectamine 2000.
Approximately 5–6 hours post-transfection, cells were seeded into plate format according to the experiment (384-well plate mostly). On the following day, cells were treated with the indicated test compounds or DMSO vehicle control for 16 hours (unless otherwise specified).
After treatment, cells were lysed and luciferase activities were quantified using the Dual-Luciferase® Reporter Assay System according to the manufacturer’s instructions and established protocols.(2, 3) For assays using the CMV-XBP-Gluc construct encoding Gaussia […]

In another experiment the test system is SNCA-EGFP. Briefly: SNCA-EGFP degradation in SH-SY5Y cells. Type of experiment: cell-based, human. How it is done:
This reporter is prone to aggregation because of its slow protein turnover. To assess compound efficacy, we measured the fluorescence signal of GFP-tagged synuclein within aggregates.
The GFP fluorescence signal was then normalized to that of the DMSO control and the cell number. The experiment was performed in at least five biological replicates. Statistical analysis was performed using paired t-tests with Holm–Šídák correction for multiple comparisons (α = […]
SH-SY5Y cells stably expressing SNCA-EGFP were seeded on a plate and allowed to […]
tadalafil (5 µM), or RUN compounds at a concentration of 1 µM or treated with an equivalent volume of DMSO dissolved in buffer as a vehicle control. The treatment was performed for 16 hours and then fluorescence was measured. The GFP signal intensity was normalized to both the DMSO control and the cell count.

Experiment [2] deals with ubiquitin-proteasome system. Briefly: Ub-G76V-GFP reporter degradation in U2OS cells. The class given is cell-based. The text has this:
We next examined whether the selected RUN compounds activate the NFE2L1 pathway in a stress-independent manner, while preserving normal ubiquitin-dependent proteasomal degradation. This distinction is crucial, as the therapeutic benefit of NFE2L1 activation lies in its ability to alleviate proteotoxic stress and target disease-related proteins for degradation without compromising normal proteostasis. To assess this, U2OS cells stably expressing the short-lived fluorescent reporter Ub-G76V-GFP were treated with various concentrations of RUN compounds. […] We also examined whether compound-induced activation of NFE2L1 could be attributed to the generation of reactive oxygen species (ROS). To test this, the 3×PSMA4-ARE-LUC reporter assay was performed in the presence or absence of the antioxidant N-acetyl-L-cysteine (NAC). A decrease in reporter activity upon NAC treatment would indicate pathway activation through oxidative stress.
RUN compound (5 µM) for 8 hours. Fluorescence intensity was normalized to cell viability (measured by the alamarBlue assay) and compared to vehicle control (DMSO). Unlike the […]
as means ± SD from three independent experiments (n = 3). Statistical analysis was performed using a multiple unpaired t-test with Welch’s correction, with adjustment for multiple comparisons by the Holm–Šídák method (α = 0.05). ****p<0.0001. Detailed results of the analysis are shown in Supplementary Table S14. […]
2.4 Monitoring protein degradation using UbG76V-GFP reporter cells
U2OS cells stably expressing the Ub-G76V-GFP reporter were seeded into 96-well plates at and cultured overnight under standard conditions. On the following day, cells were treated with the indicated test compounds or DMSO vehicle control for 8 hours. After treatment, GFP fluorescence intensity was measured, providing a readout of proteasome-dependent degradation of the Ub-G76V-GFP substrate. Cell viability was then assessed in the same wells using the alamarBlue assay according to the manufacturer’s protocol. Viability values were used for normalization of fluorescence data to account for differences in cell number. Accumulation of GFP signal relative to DMSO-treated controls was interpreted as reduced degradation of UPS substrates, indicating potential effects of the compounds on the natural protein turnover.
Statistical comparison of RUN compounds with ASC-JM17 was performed using a multiple unpaired t-test with Welch’s correction, with adjustment for multiple comparisons by the Holm–Šídák method (α = 0.05) in GraphPad Prism (v 10.6.1). […]
RNA was extracted using […]
the RNeasy® Plus Micro Kit according to the manufacturer’s instructions. Complementary DNA (cDNA) was synthesized from RNA using either t he TATAA GrandScript cDNA Supermix (TATAA Biocenter) or the QuantiTect® Reverse Transcription Kit (Qiagen), following the respective protocols. Quantitative RT -PCR was performed on a LightCycler® 480 instrument (Roche Life Science) using the TATAA SYBR® Gr andMaster® Mix (TATAA […]
Biocenter). Gene expression levels were normalized to RPLP0, and relative expression was calculated using the ΔΔCt method. Data were expressed as fold change relative to the corresponding DMSO control. Statistical analysis of changes in gene expression was performed w ith a ratio paired t-test corrected for multiple comparisons using Holm-Šídák's method (α = 0.05) in GraphPad Prism (v 10.6.1).
Table S1. Sequences of primer pairs used in the qRT -PCR analysis of gene expression.

Setting [3] is: SH-SY5Y, SNCA-EGFP degron, Figure S7.

As to `CC(C)C[C@@H](C=O)NC(=O)[C@H](CC(C)C)NC(=O)[C@H](CC(C)C)NC(=O)OCc1ccccc1` [MG132] (Cbz-Leu-Leu-Leu-aldehyde), the “Mean 2 (mean of log2-transformed values, treatment; DMSO = 0)” value came to 2.106 in the experiment on IRE1/XBP1s (1 µM), 2.725 with IRE1/XBP1s (5 µM) and 3.956 in the experiment on IRE1/XBP1s (10 uM). Also, the “Mean diff, DMSO vs. treatment (log2-transformed values)” value with IRE1/XBP1s (DMSO vs. 1 µM) is -2.106; with IRE1/XBP1s (DMSO vs. 5 µM), -2.725; in the experiment on IRE1/XBP1s (DMSO vs. 10 uM) it was -3.956.

With `CC(C)C[C@H](NC(=O)[C@H](Cc1ccccc1)NC(=O)c1cnccn1)B(O)O` [BTZ, bortezomib, reference compound], the “Mean log2-transformed reporter fold change, HCT116 KO 04” value in experiment [1] (DDI2-/- clone KO 04, 0.5 μM BTZ or 5 μM RUN-89, 16 h, DMSO = 0) came to 0.1712. The “Mean log2-transformed reporter fold change, HCT116 KO 11” value in experiment [1] (DDI2-/- clone KO 11, 0.5 μM BTZ or 5 μM RUN-89, 16 h, DMSO = 0) was found to be 0.1696. Moreover, in experiment [1] (DDI2 knockout HCT116, in contrast to wild-type cells), the “Reporter activity in DDI2-deficient cells” value is listed as “neither the proteasome inhibitor bortezomib nor RUN-89 induced reporter activity”. The “Mean log2-transformed reporter fold change, HCT116 WT” value in experiment [1] (WT (DDI2+/+), 0.5 μM BTZ or 5 μM RUN-89, 16 h, DMSO = 0) stood at 1.529.

Take `CN1CC(=O)N2[C@H](c3ccc4c(c3)OCO4)c3[nH]c4ccccc4c3C[C@@H]2C1=O` [tadalafil, reference compound]: the “EGFP-SNCA aggregation (GFP signal)” value in the experiment on SNCA-EGFP (SH-SY5Y SNCA-EGFP, 16 h, RUN compounds 1 μM, PD169316 3 μM, tadalafil 5 μM) is given as “reduction”. Further, in the experiment with SNCA-EGFP (setting [3]), the “Geometric mean of ratios (paired t tests, Treatment vs Control = 100)” value was -20.51 and the “Geometric mean, Treatment (Control = 100)” value turned out to be 79.49.

`COc1ccc(/C=C/C(=O)C(CC2CCC2)C(=O)/C=C/c2ccc(OC)c(OC)c2)cc1OC` [ASC-JM-17, reference compound]: the “Ub-G76V-GFP reporter assay, mean” value in experiment [2] (U2OS cells, Fig. S3) was found to be 4.073. Moreover, in experiment [2] (U2OS, 5 μM, 8 h, versus DMSO), the “Ub-G76V-GFP degradation (ubiquitin-proteasome system function)” value is recorded as “impaired proteasomal degradation”.
